# According to US20160256460A1, “ACTIVATORS OR STIMULATORS OF SOLUBLE GUANYLATE CYCLASE FOR USE IN TREATING CHRONIC FATIGUE SYNDROME” (BERGEN TEKNOLOGIOVERFØRING AS, priority 2013, published 2016):
# Test system: ME/CFS patient
# Test: Case report: oral riociguate (Adempas) in one ME/CFS patient
# Type: in vivo, human
# Description: It is understood that the examples illustrate the invention further without limiting the same. The patient is a person. They have had ME/CFS for 10 years, starting after a Giardia Lamblia infection. They have a disease severity varying between moderate and mild, but with moderate severity the last month prior to start of Riociguat. They have a typical ME/CFS and fulfils Canadian criteria. […] They started with only 0.5 mg once daily, gradually increasing to 0.5 two times daily after a few days and again to 0.5 mg three times daily on day six. […] The dose was increased to 1 mg+0.5 mg+1 mg starting from day seven and, in addition, starting from day nine increased to 1 mg three times daily. […] They told the clinicians of the improvement of their ME/CFS symptoms. They experienced this improvement to be significant and not within the usual range of symptom variation of their ME/CFS disease the last months.
structure (smiles),measurement,setting,value
"COC(=O)N(C)c1c(N)nc(-c2nn(Cc3ccccc3F)c3ncccc23)nc1N [Riociguat, Methyl 4,6-diamino-2-[1-(2-fluorobenzyl)-1H-pyrazolo[3,4-b]pyridine-3-yl]-5-pyrimidinyl(methyl)carbamate]",ME/CFS symptom change reported by the patient,"after the first six days, at a dose of 2.5 mg per day","more energy and less fatigue, less brain fog with an improved concentration ability, less hypersensitivity to sound and light, and less feeling of sore throat"
same,benefit on the ME/CFS symptoms,"person, moderate ME/CFS, oral 0.5 mg once daily increased to 0.5 mg three times daily on day six, noticed from day six, the next three days",benefit on the ME/CFS symptoms
same,side effects,"same patient, dose increased up to 1 mg three times daily from day nine",no clear side effects
